Assays:
[1] = system: A549; assay: Cytotoxicity against human A549 cells assessed as age growth inhibition at 50 uM after 48 hrs by sulforhodamine B assay; type: functional; conditions: A549, 48 h, read-out: GI
[2] = system: SK-OV-3; assay: Antiproliferative activity against human SKOV3 cells after 48 hrs by sulforhodamine B assay; type: functional, cell-based; conditions: SK-OV-3, 48 h
[3] = system: SK-OV-3; assay: Cytotoxicity against human SKOV3 cells assessed as age growth inhibition at 10 uM after 48 hrs by sulforhodamine B assay; type: functional; conditions: SK-OV-3, 48 h, read-out: GI
[4] = system: A549; assay: Cytotoxicity against human A549 cells assessed as age growth inhibition at 100 uM after 48 hrs by sulforhodamine B assay; type: functional; conditions: A549, 48 h, read-out: GI
[5] = system: SF-295; assay: Cytotoxicity against human SF295 cells assessed as age growth inhibition at 10 uM after 48 hrs by sulforhodamine B assay; type: functional; conditions: SF-295, 48 h, read-out: GI
[6] = system: COLO 205; assay: Antiproliferative activity against human COLO205 cells after 48 hrs by sulforhodamine B assay; type: functional, cell-based; conditions: COLO 205, 48 h
[7] = system: SF-295; assay: Cytotoxicity against human SF295 cells assessed as age growth inhibition at 50 uM after 48 hrs by sulforhodamine B assay; type: functional; conditions: SF-295, 48 h, read-out: GI
[8] = system: COLO 205; assay: Cytotoxicity against human COLO205 cells assessed as age growth inhibition at 10 uM after 48 hrs by sulforhodamine B assay; type: functional; conditions: COLO 205, 48 h, read-out: GI
[9] = system: HEp-2; assay: Antiproliferative activity against human HEP2 cells after 48 hrs by sulforhodamine B assay; type: functional, cell-based; conditions: HEp-2, 48 h
[10] = system: SF-295; assay: Antiproliferative activity against human SF295 cells after 48 hrs by sulforhodamine B assay; type: functional, cell-based; conditions: SF-295, 48 h
[11] = system: HOP-62; assay: Antiproliferative activity against human HOP62 cells after 48 hrs by sulforhodamine B assay; type: functional, cell-based; conditions: HOP-62, 48 h
[12] = system: A549; assay: Cytotoxicity against human A549 cells assessed as age growth inhibition at 10 uM after 48 hrs by sulforhodamine B assay; type: functional; conditions: A549, 48 h, read-out: GI
[13] = system: HCT-15; assay: Antiproliferative activity against human HCT15 cells after 48 hrs by sulforhodamine B assay; type: functional, cell-based; conditions: HCT-15, 48 h
[14] = system: IGROV-1; assay: Cytotoxicity against human IGROV1 cells assessed as age growth inhibition at 50 uM after 48 hrs by sulforhodamine B assay; type: functional; conditions: IGROV-1, 48 h, read-out: GI
[15] = system: COLO 205; assay: Cytotoxicity against human COLO205 cells assessed as age growth inhibition at 100 uM after 48 hrs by sulforhodamine B assay; type: functional; conditions: COLO 205, 48 h, read-out: GI
[16] = system: HOP-62; assay: Cytotoxicity against human HOP62 cells assessed as age growth inhibition at 50 uM after 48 hrs by sulforhodamine B assay; type: functional; conditions: HOP-62, 48 h, read-out: GI
[17] = system: HOP-62; assay: Cytotoxicity against human HOP62 cells assessed as age growth inhibition at 10 uM after 48 hrs by sulforhodamine B assay; type: functional; conditions: HOP-62, 48 h, read-out: GI
[18] = system: IGROV-1; assay: Cytotoxicity against human IGROV1 cells assessed as age growth inhibition at 10 uM after 48 hrs by sulforhodamine B assay; type: functional; conditions: IGROV-1, 48 h, read-out: GI
[19] = system: SK-OV-3; assay: Cytotoxicity against human SKOV3 cells assessed as age growth inhibition at 50 uM after 48 hrs by sulforhodamine B assay; type: functional; conditions: SK-OV-3, 48 h, read-out: GI
[20] = system: DU-145; assay: Antiproliferative activity against human DU145 cells after 48 hrs by sulforhodamine B assay; type: functional, cell-based; conditions: DU-145, 48 h
[21] = system: HCT-15; assay: Cytotoxicity against human HCT15 cells assessed as age growth inhibition at 10 uM after 48 hrs by sulforhodamine B assay; type: functional; conditions: HCT-15, 48 h, read-out: GI
[22] = system: HEp-2; assay: Cytotoxicity against human HEP2 cells assessed as age growth inhibition at 100 uM after 48 hrs by sulforhodamine B assay; type: functional; conditions: HEp-2, 48 h, read-out: GI
[23] = system: DU-145; assay: Cytotoxicity against human DU145 cells assessed as age growth inhibition at 100 uM after 48 hrs by sulforhodamine B assay; type: functional; conditions: DU-145, 48 h, read-out: GI
[24] = system: HEp-2; assay: Cytotoxicity against human HEP2 cells assessed as age growth inhibition at 50 uM after 48 hrs by sulforhodamine B assay; type: functional; conditions: HEp-2, 48 h, read-out: GI
[25] = system: DU-145; assay: Cytotoxicity against human DU145 cells assessed as age growth inhibition at 10 uM after 48 hrs by sulforhodamine B assay; type: functional; conditions: DU-145, 48 h, read-out: GI
[26] = system: IGROV-1; assay: Cytotoxicity against human IGROV1 cells assessed as age growth inhibition at 100 uM after 48 hrs by sulforhodamine B assay; type: functional; conditions: IGROV-1, 48 h, read-out: GI
[27] = system: HCT-15; assay: Cytotoxicity against human HCT15 cells assessed as age growth inhibition at 100 uM after 48 hrs by sulforhodamine B assay; type: functional; conditions: HCT-15, 48 h, read-out: GI
[28] = system: COLO 205; assay: Cytotoxicity against human COLO205 cells assessed as age growth inhibition at 50 uM after 48 hrs by sulforhodamine B assay; type: functional; conditions: COLO 205, 48 h, read-out: GI
[29] = system: DU-145; assay: Cytotoxicity against human DU145 cells assessed as age growth inhibition at 50 uM after 48 hrs by sulforhodamine B assay; type: functional; conditions: DU-145, 48 h, read-out: GI
[30] = system: SK-OV-3; assay: Cytotoxicity against human SKOV3 cells assessed as age growth inhibition at 100 uM after 48 hrs by sulforhodamine B assay; type: functional; conditions: SK-OV-3, 48 h, read-out: GI
[31] = system: HOP-62; assay: Cytotoxicity against human HOP62 cells assessed as age growth inhibition at 100 uM after 48 hrs by sulforhodamine B assay; type: functional; conditions: HOP-62, 48 h, read-out: GI
[32] = system: A549; assay: Antiproliferative activity against human A549 cells after 48 hrs by sulforhodamine B assay; type: functional, cell-based; conditions: A549, 48 h
[33] = system: HEp-2; assay: Cytotoxicity against human HEP2 cells assessed as age growth inhibition at 10 uM after 48 hrs by sulforhodamine B assay; type: functional; conditions: HEp-2, 48 h, read-out: GI
[34] = system: SF-295; assay: Cytotoxicity against human SF295 cells assessed as age growth inhibition at 100 uM after 48 hrs by sulforhodamine B assay; type: functional; conditions: SF-295, 48 h, read-out: GI
[35] = system: IGROV-1; assay: Antiproliferative activity against human IGROV1 cells after 48 hrs by sulforhodamine B assay; type: functional, cell-based; conditions: IGROV-1, 48 h
[36] = system: HCT-15; assay: Cytotoxicity against human HCT15 cells assessed as age growth inhibition at 50 uM after 48 hrs by sulforhodamine B assay; type: functional; conditions: HCT-15, 48 h, read-out: GI

Structure (SMILES) | inhibition of growth at 50 µM [1] [%] | IC50 [2] [µM] | inhibition of growth at 10 µM [3] [%] | inhibition of growth at 100 µM [4] [%] | inhibition of growth at 10 µM [5] [%] | IC50 [6] [µM] | inhibition of growth at 50 µM [7] [%] | inhibition of growth at 10 µM [8] [%] | IC50 [9] [µM] | IC50 [10] [µM] | IC50 [11] [µM] | inhibition of growth at 10 µM [12] [%] | IC50 [13] [µM] | inhibition of growth at 50 µM [14] [%] | inhibition of growth at 100 µM [15] [%] | inhibition of growth at 50 µM [16] [%] | inhibition of growth at 10 µM [17] [%] | inhibition of growth at 10 µM [18] [%] | inhibition of growth at 50 µM [19] [%] | IC50 [20] [µM] | also measured
CC1(C)CCC[C@@]2(C)C1=C[C@H]1C(=O)O[C@H](c3ccccc3)[C@H]12 | 29 | 86.5 | 20 | 51 | 15 | 63.6 | 18 | 14 | > 100 | > 100 | > 100 | 11 | 75.3 | 22 | 79 | 21 | 16 | 0 | 30 | 87.6 | inhibition of growth at 10 µM [21]: 9%; inhibition of growth at 100 µM [22]: 37%; inhibition of growth at 100 µM [23]: 56%; inhibition of growth at 50 µM [24]: 18%; inhibition of growth at 10 µM [25]: 15%; inhibition of growth at 100 µM [26]: 63%; inhibition of growth at 100 µM [27]: 56%; inhibition of growth at 50 µM [28]: 34%; inhibition of growth at 50 µM [29]: 32%; inhibition of growth at 100 µM [30]: 57%; inhibition of growth at 100 µM [31]: 28%; IC50 [32]: 97.6 µM; inhibition of growth at 10 µM [33]: 6%; inhibition of growth at 100 µM [34]: 22%; IC50 [35]: 83.7 µM; inhibition of growth at 50 µM [36]: 46%
CC1(C)CCC[C@@]2(C)C1=C[C@H]1C(=O)O[C@H](c3ccc(Br)cc3)[C@H]12 | 10 | 95.1 | 6 | 26 | 0 | > 100 | 18 | 14 | > 100 | > 100 | 49.5 | 8 | > 100 | 26 | 32 | 55 | 0 | 7 | 28 | > 100 | inhibition of growth at 10 µM [21]: 7%; inhibition of growth at 100 µM [22]: 22%; inhibition of growth at 100 µM [23]: 28%; inhibition of growth at 50 µM [24]: 18%; inhibition of growth at 10 µM [25]: 21%; inhibition of growth at 100 µM [26]: 30%; inhibition of growth at 100 µM [27]: 40%; inhibition of growth at 50 µM [28]: 14%; inhibition of growth at 50 µM [29]: 27%; inhibition of growth at 100 µM [30]: 52%; inhibition of growth at 100 µM [31]: 66%; IC50 [32]: > 100 µM; inhibition of growth at 10 µM [33]: 3%; inhibition of growth at 100 µM [34]: 21%; IC50 [35]: > 100 µM; inhibition of growth at 50 µM [36]: 32%
Cc1ccc([C@H]2OC(=O)[C@@H]3C=C4C(C)(C)CCC[C@]4(C)[C@H]23)cc1 | 29 | > 100 | 19 | 42 | 19 | > 100 | 20 | 10 | > 100 | > 100 | > 100 | 13 | 78 | 29 | 34 | 13 | 2 | 0 | 29 | > 100 | inhibition of growth at 10 µM [21]: 11%; inhibition of growth at 100 µM [22]: 27%; inhibition of growth at 100 µM [23]: 35%; inhibition of growth at 50 µM [24]: 25%; inhibition of growth at 10 µM [25]: 6%; inhibition of growth at 100 µM [26]: 40%; inhibition of growth at 100 µM [27]: 55%; inhibition of growth at 50 µM [28]: 22%; inhibition of growth at 50 µM [29]: 10%; inhibition of growth at 100 µM [30]: 30%; inhibition of growth at 100 µM [31]: 21%; IC50 [32]: > 100 µM; inhibition of growth at 10 µM [33]: 9%; inhibition of growth at 100 µM [34]: 21%; IC50 [35]: > 100 µM; inhibition of growth at 50 µM [36]: 44%
CC1(C)CCC[C@@]2(C)C1=C[C@H]1C(=O)O[C@H](c3ccc(Cl)cc3)[C@H]12 | 12 | > 100 | 10 | 20 | 20 | > 100 | 23 | 22 | > 100 | > 100 | > 100 | 10 | > 100 | 15 | 25 | 29 | 27 | 1 | 14 | > 100 | inhibition of growth at 10 µM [21]: 9%; inhibition of growth at 100 µM [22]: 18%; inhibition of growth at 100 µM [23]: 35%; inhibition of growth at 50 µM [24]: 18%; inhibition of growth at 10 µM [25]: 16%; inhibition of growth at 100 µM [26]: 16%; inhibition of growth at 100 µM [27]: 30%; inhibition of growth at 50 µM [28]: 24%; inhibition of growth at 50 µM [29]: 30%; inhibition of growth at 100 µM [30]: 24%; inhibition of growth at 100 µM [31]: 38%; IC50 [32]: > 100 µM; inhibition of growth at 10 µM [33]: 8%; inhibition of growth at 100 µM [34]: 31%; IC50 [35]: > 100 µM; inhibition of growth at 50 µM [36]: 29%
